# Data: patent publication US20260060964A1, “METHODS AND COMPOSITIONS FOR TREATING SEPSIS” (Antivirus Therapeutics, priority 2021, published 2026)
# What was measured:
# [1] = 25° C.; cited from earlier work
# enterovirus = experiment: virological efficacy: EV culture and PCR in neonates with suspected enterovirus sepsis, placebo-controlled study; type: in vivo, human
# From the text: (§1) Sixty-one subjects were enrolled; 43 randomized to the treatment group and 18 to the placebo group (FIG. 1). Of these, 43 (70%) were confirmed EV-positive: 31 in the treatment group and 12 in the placebo group. The study was terminated prior to full accrual due to expiration of study drug. […] 8/18 (44%) in the placebo group and lost-to-follow-up in 9/43 (21%) subjects in the treatment group v. 1/18 (6%) in the placebo group. Neonates with suspected EV sepsis (hepatitis, coagulopathy, and/or myocarditis) were enrolled at 19 centers from June 1999-December 2010.
# (§2) A 2:1 study drug: placebo randomization with randomly permuted block sizes was used. Randomization codes were accessible only to biostatistical personnel at the coordinating center. Subjects initially received 5.0 mg/kg/dose of a 40 mg/mL liquid formulation of pleconaril (ViroPharma, Inc.; Exton, PA) or matching placebo identical in composition except lacking active study drug. The liquid formulation expired on May 31, 2002, after which the formulation was changed by the manufacturer to a 40 mg/mL suspension. Subjects received 8.5 mg/kg/dose of pleconaril suspension (shown to provide similar drug exposure as 5.0 mg/kg/dose of pleconaril liquid) or matching placebo. Both pleconaril formulations and matching placebos were administered every 8 hours×7 days in 1.0 mL of breast milk or formula by mouth or orogastric tube and were given to subjects who were otherwise NPO. Subjects were permitted to receive antibiotics, acyclovir, cardiotropic medications, and IVIG. Subjects for whom an etiology for illness other than EV infection was documented after enrollment had study drug/placebo discontinued.
# (§3) A target sample size of 45 subjects with confirmed EV disease, with an expectation that approximately 67% of enrolled subjects would be confirmed to be EV-infected, was chosen to provide sufficient power to detect a reduction in viral shedding from the oropharynx from 96% to 70% on day 5. EV-confirmed subjects (culture- or PCR-positive) were included in virologic and clinical efficacy analyses, all enrolled subjects were included in safety analyses, and pleconaril recipients for whom pharmacokinetic data were obtained (whether or not EV-infected) were included in pharmacokinetic analyses. Survival analyses were conducted on the total enrolled cohort and on EV-confirmed subjects.
# (§4) Fisher's Exact Test was utilized for comparisons of categorical factors and the Kruskal-Wallis and Mann Whitney Tests for continuous factors, with medians and ranges presented. Kaplan-Meier curves and log-rank statistics were utilized to assess differences in duration of culture and PCR positivity and survival between study groups. Changes in toxicity grades from baseline and adverse event rates were compared by chi-square tests.
# Specimens for EV culture and polymerase chain reaction (PCR) were obtained from the oropharynx, rectum, urine, and serum on days 1-5, 7, 10, and 14. Plasma for pharmacokinetic analysis was obtained on day 1 (2, 4, and 8 hours after study drug administration) and days 3 and 7 (prior to and 2 and 4 hours after administration). Hematology and chemistry tests were obtained on study days 1, 3, 5, 7, 10, and 14 and urinalyses on days 1 and 7. Persisting abnormalities were followed at visits at 2, 6, 12, 18, and 24 months. Adverse events were recorded at each evaluation, and relationship to study treatment was determined by site investigators.
# The primary endpoint was the percentage of patients with a positive viral culture from the oropharynx five days after beginning study drug. Secondary endpoints included duration of culture positivity from oropharynx, rectum, urine and serum; changes in laboratory values reflecting resolution or progression of EV disease or drug toxicity; duration of hospitalization; time to resolution of organ abnormalities; survival; and pleconaril pharmacokinetics. […]
# [2] = safety analysis: adverse events in enrolled neonates; type: in vivo, human
# Protocol: as §2, with “discontinued. […]” for “discontinued.”
# (§5) Specimens for EV culture and polymerase chain reaction (PCR) were obtained from the oropharynx, rectum, urine, and serum on days 1-5, 7, 10, and 14. […] Adverse events were recorded at each evaluation, and relationship to study treatment was determined by site investigators.
# [3] = tested on: neonatal enterovirus infections; experiment: clinical efficacy: survival of neonates with suspected enterovirus sepsis, placebo-controlled study; type: in vivo, human
# From the text: as §1, §2, §3, §4
# The primary endpoint was the percentage of patients with a positive viral culture from the oropharynx five days after beginning study drug. Secondary endpoints included duration of culture positivity from oropharynx, rectum, urine and serum; changes in laboratory values reflecting resolution or progression of EV disease or drug toxicity; duration of hospitalization; time to resolution of organ abnormalities; survival; and pleconaril pharmacokinetics. Tertiary endpoints included duration of blood product (fresh frozen plasma, packed red blood cells, platelets, other products) and inotropic support.
# CYP 3A = conditions: oral delivery at 200-400 mg dose level; cited from earlier work
# [4] = tested on: human respiratory picornavirus; conditions: nasal thixotropic formulation, 12 mg per day nasal spray v. 400 mg oral dose; cited from earlier work
# [5] = plasma pharmacokinetics in neonates; type: in vivo, human; conditions: on D1
# Protocol: as §2, with “discontinued. […]” for “discontinued.”
# as §5
structure (smiles),measurement,setting,value
"Cc1cc(CCCOc2c(C)cc(-c3noc(C(F)(F)F)n3)cc2C)on1 [Pleconaril, 3-{3,5-dimethyl-4-[3-(3-methylisoxazol-5-yl)propoxy]phenyl}-5-(trifluoromethyl)-1,2,4-oxadiazole]",solubility in water,[1],< 0.02 µg/mL
same,EV-confirmed subjects culture-positive from the oropharynx,"enterovirus; day 1, treatment group, 6 of 24",25%
same,subjects shedding cultivable virus from the oropharynx,enterovirus; day 5 (primary endpoint),no subjects
same,"persistence of PCR positivity from OP, compared with placebo","enterovirus; oropharynx, pleconaril group v. placebo",shorter
same,"time to culture negativity of all sites combined, compared with placebo",enterovirus; pleconaril group v. placebo,shorter
same,median time to culture-negativity from all sites among culture-positive subjects,"enterovirus; treatment group (19 subjects) v. 7.0 days placebo, p=0.08",4.0 days
same,"median time to sustained culture-negativity, urine","enterovirus; treatment group v. 7.0 days placebo, p=0.05",4.0 days
same,median time to sustained oropharyngeal culture negativity,"enterovirus; treatment group, placebo also 3.0",3.0 days
same,subjects with adverse events whose events were judged possibly/probably treatment-related,[2]; treatment group v. 18% placebo,3%
same,enrolled subjects who experienced adverse events,[2]; treatment group v. 94% placebo,Eighty-six
same,"cumulative survival v. placebo, EV-confirmed subjects",[3]; over two months,trends in cumulative survival favoring the treatment group
same,"cumulative survival over two months v. placebo, all enrolled subjects",[3]; p=0.02,greater
same,cumulative survival over 18 months v. placebo,"[3]; p=0.07 among all subjects, p=0.23 among EV-confirmed subjects",continued to exceed
same,"subjects who died, EV-confirmed subjects",[3]; treatment group 7/31 v. placebo 5/12 (42%),23%
same,"subjects who died, all enrolled subjects",[3]; treatment group 10/43 v. placebo 8/18 (44%),23%
same,induction of CYP 3A (side effect),CYP 3A,induction of CYP 3A
same,clinical/antiviral effect of nasal spray compared with oral dose,[4],roughly similar clinical/antiviral effect
same,share with concentrations below IC90,[5],41%
